Experimental findings from patent US20020142016A1, “Stable skin care product containing a retinoid and a retinoid booster system in a dual compartment package” (priority 2000, published 2002) are described below.

The inhibition is how much of the control response was suppressed. High values mean strong suppression, low ones little suppression.

Data set [1] can be described thus: Retinol stability in the presence of boosters (OD 360 nm). The format is physicochemical. The note with it: booster approximately 0.1%, retinol in approx. 50% aqueous ethanol, 60 hours at room temperature in the dark. How it is done: Retinol (50% in tween 80) was dissolved in approximately 50% aqueous ethanol to provide a solution giving an OD at 360nm of approximately 0.6 when measured in a 200 μl volume in a 96 well plate using a standard 96 well spectrophotometer.
Booster molecules were added at approximately 0.1% concentration and the OD 360 measured as above immediately and after 60 hours at room temperature in the dark. A correction was applied to the OD after 60 hours (divide by 0.85) to account for increased concentration of the retinol due to evaporation of solvent from the plate.

Another data set has as its system TGase I. The data set is described as follows: Transglutaminase (TGase I ELISA) assay in cultured keratinocytes with retinol. The format is cell-based. The conditions noted are these: for IC50: Keratinocyte, concentration of booster which, with constant retinol 10^-7 M, inhibits TGase by 50%, read-out: Overall TG (IC 50); for % Inhibition Overall TG (-ROH/RE): added effect of booster+retinol induced TGase inhibition over retinol alone.

Data set [2] concerns retinoic acid oxidation (cytochrome P450 systems). In words: Assay for NADPH dependent retinoic acid oxidation in rat liver microsomes. The data set is classed as biochemical. The conditions noted are these: Sprague Dawley, pH 7.4, probe retinoic acid; for inhibition at 60 min, 100 µM: 10 μM.
The target in a further data set is T1, LRAT (Bos taurus, UniProt Q9BGL2).
T1 construct: followed by approximately 15 pg of RPE microsomal protein; tissue W. L. Lawson Co., Lincoln, Nebr; host or cells: bovine retinal pigment epithelium microsomes
T1 sequence (Q9BGL2 1-230): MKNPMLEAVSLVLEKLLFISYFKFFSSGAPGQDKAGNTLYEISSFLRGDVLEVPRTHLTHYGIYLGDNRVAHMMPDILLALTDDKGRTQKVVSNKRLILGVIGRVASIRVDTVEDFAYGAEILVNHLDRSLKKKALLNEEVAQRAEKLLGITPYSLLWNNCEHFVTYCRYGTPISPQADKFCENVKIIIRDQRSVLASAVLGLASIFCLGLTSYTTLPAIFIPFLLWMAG
The data set is described as follows: Assay for LRAT activity in RPE microsomes. The conditions noted are these: 100 μm compound. The format is biochemical, bovine.

For `Oc1cccc2cccnc12` [8 OH QUINOLINE], in data set [1], the “FOLD INCREASE IN RATE OF RETINOL LOSS” value is recorded as 1.5.
On the same count and under the same terms, then `CC(=O)/C=C/C1C(C)=CCCC1(C)C` (stereo not drawn) [Alpha-Ionone], with 1.3.
With `COc1cc(NS(C)(=O)=O)ccc1Nc1c2ccccc2nc2ccccc12` [Amsacrine, reference compound], in the data set with TGase I, the IC50 stood at 6.26 µM.
In data set [2], `c1ccc(-c2ccc(C(c3ccccc3)n3ccnc3)cc2)cc1` (stereo not shown) [Bifonazole] showed an inhibition at 60 min, 10 µM of 89% and an inhibition at 60 min, 100 µM of 100%.
For `O=c1ccc2ccccc2o1` [COUMARIN], the “FOLD INCREASE IN RATE OF RETINOL LOSS” value in data set [1] came to 1.4.
As to `CC1(C)[C@@H](OC(=O)CCC(=O)O)CC[C@]2(C)[C@H]3C(=O)C=C4[C@@H]5C[C@@](C)(C(=O)O)CC[C@]5(C)CC[C@@]4(C)[C@]3(C)CC[C@@H]12` [Carbenoxolone, reference compound], the IC50 in the data set on TGase I came to 0.361 µM.
As for `CC(C)=CCCC(C)=CC=O` [Citral], the “FOLD INCREASE IN RATE OF RETINOL LOSS” value in data set [1] was 3.1.
`CC(C)(C)C(=O)C(Oc1ccc(Cl)cc1)n1ccnc1` (stereo not shown) [Climbazole]: the IC50 in the data set with TGase I was 4.47 µM. In data set [2], this compound gave an inhibition at 60 min, 10 µM of 80% and an inhibition at 60 min, 100 µM of 92%.
The compound `Clc1ccccc1C(c1ccccc1)(c1ccccc1)n1ccnc1` [Clotrimazole] came in with an inhibition at 60 min, 10 µM in data set [2] of 76%.
At LRAT, `CC(/C=C/C=C(\C)C(=O)O)=C\C=C\C=C(C)\C=C\C=C(/C)C(=O)O` [Crocetin] yielded an inhibition at 100 µM of 15%. Also, the IC50 in the data set on TGase I is 37.5 µM.
As for `CN1CCN(C)C1=O` [Dimethyl Imidazolidinone], the “% Inhibition Overall TG (-ROH/RE)” value in the data set on TGase I is listed as 22%. In addition, the “FOLD INCREASE IN RATE OF RETINOL LOSS” value in data set [1] was 1.4.
With `Clc1ccc(COC(Cn2ccnc2)c2ccc(Cl)cc2Cl)cc1` (stereo not shown) [Econazole], in data set [2], the inhibition at 60 min, 10 µM turned out to be 88% and the inhibition at 60 min, 100 µM was determined as 100%.
As to `CCCCCCCC/C=C/CCCCCCCC(=O)O` [Elaidic Acid], the IC50 in the data set with TGase I amounted to 65 µM.
On to `CC(C)=CCCC(C)=CCCC(C)=CCO` [Farnesol], for which, at LRAT, the inhibition at 100 µM is 53%. The IC50 in the data set with TGase I was 93.5 µM.
For `CC(C)=CCC/C(C)=C/CO` [Geraniol], the IC50 in the data set with TGase I stood at 7830 µM. Also, the “FOLD INCREASE IN RATE OF RETINOL LOSS” value in data set [1] was found to be 1.3.
In the case of `CC(C)=CCC/C(C)=C/CC/C(C)=C/CC/C(C)=C/CO` [Geranyl Geraniol], the inhibition at 100 µM against LRAT amounted to 77%.
In the case of `CC1(C)[C@@H](O)CC[C@]2(C)[C@H]3C(=O)C=C4[C@@H]5C[C@@](C)(C(=O)O)CC[C@]5(C)CC[C@@]4(C)[C@]3(C)CC[C@@H]12` [Glycyrretinic Acid], the “FOLD INCREASE IN RATE OF RETINOL LOSS” value in data set [1] turned out to be 1.6.
Take `O=C(O)CCCCCCCCCCCCCCC(=O)O` [Hexadecanedioic Acid]: in the data set on TGase I, the IC50 worked out at 130 µM.
On the same count and under the same terms, then `CC(C)CCCCCCCCCCCCCCC(=O)O` [Isostearic Acid], with 68.8 µM.
On to `CC(=O)N1CCN(c2ccc(OCC3COC(Cn4ccnc4)(c4ccc(Cl)cc4Cl)O3)cc2)CC1` (stereo not shown) [Ketoconazole], for which, in the data set on TGase I, the IC50 came out at 0.185 µM. In addition, in data set [2], the inhibition at 60 min, 10 µM worked out at 84% and the inhibition at 60 min, 100 µM was determined as 84%.
Take `CCCCCCCCCCCC(=O)N(C)CC(=O)O` [Lauroyl Sarcosine]: in data set [1], the “FOLD INCREASE IN RATE OF RETINOL LOSS” value is recorded as 2.6.
`CCN(CC)CC(=O)Nc1c(C)cccc1C` [Lidocaine, reference compound] had an inhibition at 100 µM at LRAT of 0%.
As to `CCCCC/C=C\C/C=C\CCCCCCCC(=O)N(CCO)CCO` [Linoleamide-DEA (or Linoleoyl Diethanolamide)], the “% Inhibition Overall TG (-ROH/RE)” value in the data set with TGase I turned out to be 59%. Further, in data set [1], the “FOLD INCREASE IN RATE OF RETINOL LOSS” value is 3.0.
In turn, `CCCCC/C=C\C/C=C\CCCCCCCC(=O)NCCCN(C)C` [Linoleamidopropyl Dimethylamine] displayed an inhibition at 100 µM against LRAT of 75%.
For the compound `CCCCC/C=C\C/C=C\CCCCCCCC(=O)O` [Linoleic Acid], in the data set on TGase I, the IC50 was 163 µM. Also, the “FOLD INCREASE IN RATE OF RETINOL LOSS” value in data set [1] was determined as 3.4.
With `CC/C=C\C/C=C\C/C=C\CCCCCCCC(=O)O` [Linolenic Acid], the IC50 in the data set with TGase I amounted to 134 µM.
For the compound `CCCCC/C=C/C/C=C/CCCCCCCC(=O)NC(C)c1ccccc1` (stereo not shown) [Melinamide, reference compound], 100 µM produced 43% inhibition at LRAT.
For the compound `CC(C)(C(=O)c1cccnc1)c1cccnc1` [Metyrapone (2-Methyl-1,2-di-3-Pyridyl-1-Propane], the inhibition at 60 min, 100 µM in data set [2] was 47%.
In data set [2], `Clc1ccc(COC(Cn2ccnc2)c2ccc(Cl)cc2Cl)c(Cl)c1` (stereo not shown) [Miconazole] showed an inhibition at 60 min, 10 µM of 74% and an inhibition at 60 min, 100 µM of 86%.
On to `CCCCCCCCCCCCCC(=O)O` [Myristic Acid], for which the IC50 with TGase I was found to be 17.2 µM.
In the case of `CCCCCCCCCCCCCC(=O)N(C)CC(=O)O` [Myristoyl Sarcosine], the inhibition at 100 µM against LRAT was found to be 11%.
Regarding `O=c1c(O)c(-c2ccc(O)c(O)c2)oc2cc(O)cc(O)c12` [Quercetin], the IC50 in the data set with TGase I stood at 62.9 µM. In data set [2], this compound registered an inhibition at 60 min, 10 µM of 40% and an inhibition at 60 min, 100 µM of 74%.
Take `CC(=O)c1cc2c(cc1C)C(C)(C)C(C)CC2(C)C` (stereo not shown) [Tonalid]: the inhibition at 100 µM against LRAT was found to be 33%.
Take `C[C@H]1[C@H](C)CC[C@]2(C(=O)O)CC[C@]3(C)C(=CC[C@@H]4[C@@]5(C)CC[C@H](O)C(C)(C)[C@@H]5CC[C@]43C)[C@H]12` [Urosolic Acid]: in the data set on TGase I, the IC50 was found to be 1.46 µM.
For `COc1cc(C=O)ccc1O` [Vanillin], in the data set on TGase I, the IC50 amounted to 9700 µM.
Regarding COCAMIDE DEA, the “FOLD INCREASE IN RATE OF RETINOL LOSS” value in data set [1] worked out at 1.9.
The same measure, in the same setting: then DAMASCONE, with 3.7.
